Data taken from ChEMBL document CHEMBL5046276 (J Med Chem, 2022).
Active and inactive are the calls of the source. No cut-off for these calls is given here.

What was measured:
[1] = molecular target: T1, NAD-dependent protein deacetylase sirtuin-2 (Homo sapiens, UniProt Q8IXJ6); assay: Inhibition of human C-terminal His-tagged SIRT2 (50 to 356 residues) expressed in Escherichia coli using Ac-peptide as substrate incubated for 4 hrs followed by trypsin addition and further incubated for 2 hrs
T1 sequence (Q8IXJ6 whole entry): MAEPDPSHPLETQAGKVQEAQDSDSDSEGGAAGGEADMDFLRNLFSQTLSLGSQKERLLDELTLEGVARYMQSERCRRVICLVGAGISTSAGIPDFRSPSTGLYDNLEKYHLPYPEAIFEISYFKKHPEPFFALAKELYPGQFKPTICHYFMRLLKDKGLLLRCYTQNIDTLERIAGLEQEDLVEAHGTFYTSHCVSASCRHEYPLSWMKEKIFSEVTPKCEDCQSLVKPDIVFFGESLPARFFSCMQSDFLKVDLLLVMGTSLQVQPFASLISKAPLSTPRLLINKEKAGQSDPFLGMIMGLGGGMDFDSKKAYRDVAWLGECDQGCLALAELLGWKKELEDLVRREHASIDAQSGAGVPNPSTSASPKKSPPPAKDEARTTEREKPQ

[2] = system: Plasmodium yoelii; assay: Antimalarial activity against blood stage Plasmodium yoelii infected in BALB/c mouse assessed as inhibition of parasitemia at 60 mg/kg, ip qd for 5 days and measured after 30 days; assay type: functional, organism-based; details: time 30.0 day
[3] = molecular target: T2, Protein deacetylase HDAC6 (Homo sapiens, UniProt Q9UBN7); assay: Inhibition of recombinant human full length N-terminal GST tagged HDAC6 (1 to 1215 residues) expressed in baculovirus-infected Sf9 cells using Ac-peptide as substrate incubated for 4 hrs
T2 sequence (Q9UBN7 whole entry): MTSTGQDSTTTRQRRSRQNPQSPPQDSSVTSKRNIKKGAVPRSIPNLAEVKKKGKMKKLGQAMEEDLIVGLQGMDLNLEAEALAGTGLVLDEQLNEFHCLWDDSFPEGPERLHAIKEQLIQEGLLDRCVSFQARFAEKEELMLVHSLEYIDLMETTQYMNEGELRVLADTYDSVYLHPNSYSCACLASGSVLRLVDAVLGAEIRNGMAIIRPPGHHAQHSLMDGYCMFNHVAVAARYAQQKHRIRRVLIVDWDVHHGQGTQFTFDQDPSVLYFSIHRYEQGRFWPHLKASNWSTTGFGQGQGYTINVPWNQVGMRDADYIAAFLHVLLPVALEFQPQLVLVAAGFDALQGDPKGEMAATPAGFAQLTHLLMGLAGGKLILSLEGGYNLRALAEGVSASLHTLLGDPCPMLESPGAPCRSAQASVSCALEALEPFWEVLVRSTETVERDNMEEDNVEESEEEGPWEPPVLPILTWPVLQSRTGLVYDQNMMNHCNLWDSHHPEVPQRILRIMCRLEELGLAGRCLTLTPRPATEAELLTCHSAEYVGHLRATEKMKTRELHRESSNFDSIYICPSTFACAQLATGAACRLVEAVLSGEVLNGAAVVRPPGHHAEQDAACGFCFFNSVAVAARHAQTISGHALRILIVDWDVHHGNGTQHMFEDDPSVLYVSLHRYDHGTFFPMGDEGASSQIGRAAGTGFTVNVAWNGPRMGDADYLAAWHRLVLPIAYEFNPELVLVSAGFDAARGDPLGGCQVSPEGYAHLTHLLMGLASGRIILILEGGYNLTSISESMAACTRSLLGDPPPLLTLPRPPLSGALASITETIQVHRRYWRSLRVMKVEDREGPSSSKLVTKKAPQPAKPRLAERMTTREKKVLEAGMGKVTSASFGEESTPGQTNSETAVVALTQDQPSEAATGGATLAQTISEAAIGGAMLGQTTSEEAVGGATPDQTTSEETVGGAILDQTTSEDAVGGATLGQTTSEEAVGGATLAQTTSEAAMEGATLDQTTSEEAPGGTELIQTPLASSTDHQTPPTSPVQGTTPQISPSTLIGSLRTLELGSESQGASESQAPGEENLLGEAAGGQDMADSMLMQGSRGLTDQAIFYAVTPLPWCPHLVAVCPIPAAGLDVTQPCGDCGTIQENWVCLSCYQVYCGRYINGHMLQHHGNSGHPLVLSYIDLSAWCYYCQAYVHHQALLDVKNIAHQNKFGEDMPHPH

[4] = molecular target: Histone deacetylase 2 (Homo sapiens, UniProt Q92769); assay: Potency index, ratio of test compound IC50 to Quisinostat IC50 for inhibition of recombinant human full length C-terminal His tagged HDAC2 (1 to 488 residues) expressed in baculovirus-infected Sf9 insect cells using Ac-peptide as substrate incubated for 4 hrs
[5] = Toxicity in BALB/c mouse infected with blood stage Plasmodium yoelii assessed as animal death at 60 mg/kg, ip qd for 5 days measured from day 2 post compound treatment; assay type: organism-based; details: in vivo, 120 h, time 5 day
[6] = molecular target: Histone deacetylase 3 (Homo sapiens, UniProt O15379); assay: Inhibition of human C-terminal His tagged HDAC3 (1 to 428 residues) expressed in baculovirus-infected Sf9 cells using Ac-peptide as substrate incubated for 4 hrs
[7] = Apparent elimination half life in BALB/c mouse at 5 mg/kg, ip measured after upto 24 hrs by LC-MS/MS analysis; assay type: ADME, organism-based; details: in vivo, read-out: betat1/2(app) (converted)
[8] = In vivo inhibition of C-terminal TY1 fused HDAC1 in Plasmodium falcipuram 3D7 assessed as inhibition of parasite growth incubated for 4 hrs followed by compound washout and replacement with fresh medium with compounds measured after 68 hrs by SYBR Green I staining based fluorescence analysis; assay type: functional, organism-based, Plasmodium falciparum
[9] = system: Plasmodium yoelii; assay: Antimalarial activity against blood stage Plasmodium yoelii infected in BALB/c mouse assessed as parasite killing by measuring parasitemia at 30 to 90 mg/kg, ip qd for 5 days and measured on day 60; assay type: functional, organism-based; details: dose 30-90 mg/kg, time 60.0 day
[10] = Metabolic stability in mouse liver microsomes assessed as intrinsic clearance at […] incubated for 45 mins in presence of NADPH by LC/MS analysis; assay type: ADME, Microsome; details: read-out: CLH
[11] = system: Plasmodium falciparum; assay: Antimalarial activity against synchronized Plasmodium falcipuram 3D7 infected in human RBC assessed as irreversible inhibition of parasite growth at trophozoite stage at 40 nM treated at 17 to 29 hpi incubated for 12 hrs followed by compound washout and replacement with fresh medium without compounds and measured after 4 days by flow cytometry; assay type: functional, organism-based
[12] = system: Plasmodium falciparum; assay: Antimalarial activity against blood stage asynchronous Plasmodium falcipuram 3D7 assessed as parasite growth inhibition by measuring parasitemia at 10 to 100 nM incubated for 12 to 24 hrs by flow cytometry; assay type: functional, organism-based; details: dose 10-100 nM, time 12-24 hrs
[13] = Selectivity index, ratio of IC50 for cytotoxicity against HEK293T cells to IC50 for antimalarial activity against asexual blood stage wild-type Plasmodium falciparum 3D7; assay type: toxicity, cell-based; details: human, read-out: Ratio IC50
[14] = system: Plasmodium falciparum; assay: Antimalarial activity against asexual blood stage wild-type Plasmodium falciparum 3D7 assessed as parasite growth inhibition incubated for 72 hrs by SYBR Green I staining based fluorescence analysis; assay type: functional, organism-based; details: 3D7, 72 h
[15] = Toxicity in BALB/c mouse infected with blood stage Plasmodium yoelii assessed as animal death at 30 to 90 mg/kg, ip qd for 5 days and measured on day 60; assay type: organism-based; details: in vivo, 1440 h, dose 30-90 mg/kg, time 60 day

Histone deacetylase 2, sequence (Q92769 whole entry, the tested form may be a part): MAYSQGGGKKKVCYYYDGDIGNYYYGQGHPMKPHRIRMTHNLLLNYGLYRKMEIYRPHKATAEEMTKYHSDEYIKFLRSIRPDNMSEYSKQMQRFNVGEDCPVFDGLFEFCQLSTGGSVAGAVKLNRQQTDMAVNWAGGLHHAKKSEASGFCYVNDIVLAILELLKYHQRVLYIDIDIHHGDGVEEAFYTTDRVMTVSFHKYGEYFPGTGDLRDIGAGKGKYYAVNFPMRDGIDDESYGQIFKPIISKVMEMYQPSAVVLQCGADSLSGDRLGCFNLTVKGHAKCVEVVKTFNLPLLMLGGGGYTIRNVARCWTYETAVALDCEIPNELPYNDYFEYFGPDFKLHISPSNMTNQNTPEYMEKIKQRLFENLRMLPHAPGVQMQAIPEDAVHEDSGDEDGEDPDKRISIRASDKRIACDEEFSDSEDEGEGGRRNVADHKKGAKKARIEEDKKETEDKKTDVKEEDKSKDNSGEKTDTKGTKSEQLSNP
Histone deacetylase 3, sequence (O15379 whole entry, the tested form may be a part): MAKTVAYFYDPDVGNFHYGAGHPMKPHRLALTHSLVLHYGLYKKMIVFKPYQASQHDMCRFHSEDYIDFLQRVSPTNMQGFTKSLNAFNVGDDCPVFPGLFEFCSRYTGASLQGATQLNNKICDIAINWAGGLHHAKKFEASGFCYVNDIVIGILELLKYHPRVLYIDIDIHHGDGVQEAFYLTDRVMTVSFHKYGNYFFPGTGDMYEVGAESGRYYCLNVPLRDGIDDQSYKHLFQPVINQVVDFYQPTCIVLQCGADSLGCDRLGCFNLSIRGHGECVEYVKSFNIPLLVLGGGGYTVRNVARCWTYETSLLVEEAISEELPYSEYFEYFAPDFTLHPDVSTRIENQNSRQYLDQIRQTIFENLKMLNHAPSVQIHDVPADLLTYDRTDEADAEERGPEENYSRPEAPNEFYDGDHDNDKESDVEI

Cl.Cn1cc(CN2CC3(CCN(c4ncc(C(=O)NO)cn4)C3)C2)c2ccc(C#N)cc21
IC50 [1]: > 10000 nM | Activity [2]: Active | IC50 [3]: 85.5 nM | Ratio IC50 [4]: 3 | Activity [5]: Non-Toxic | IC50 [6]: 5.2 nM | half-life [7]: 54.6 min | IC50 [8]: 82.5 nM | Activity [9]: Active | CLint scaled [10]: 68.1 mL/min/kg | Activity [11]: Active | Activity [12]: Active | selectivity ratio [13]: 960 | IC50 [14]: 1.26 nM | Activity [15]: Non-Toxic
